Here are results for six compounds from DBAASP.

≈ marks a conversion by molar mass, not a printed value. A value given as a limit tells only on which side of the number the result lay.

Test systems include Listeria monocytogenes; Vibrio anguillarum; Aeromonas salmonicida; Candida krusei ATCC 6258; Escherichia coli TOP 10; Escherichia coli O157:H7; Vibrio cholerae O1 Inaba; Acinetobacter baumannii.
What all share (assay): ≥ marks a high value that may be exact or a test limit, other limits are often not marked, values filed in µg/mL are converted to µM
Experiment [1] relates to Enterococcus faecalis ATCC 29212.
The test system of experiment [2] is Salmonella enterica subsp. enterica serovar Enteritidis 706 RIVM.
Experiment [3] has as its system Staphylococcus aureus WKZ2.
For experiment [4], the system named is Escherichia coli ATCC 25922.
Experiment [5] has as its system Escherichia coli ATCC 35218.
Experiment [6] has as its system Pseudomonas aeruginosa RP73.
In experiment [7] the test system is Salmonella enterica subsp. enterica serovar Typhimurium ATCC 14028.
In experiment [8] the test system is Pseudomonas aeruginosa K799.
The subject of experiment [9] is Salmonella enterica serovar typhimurium MS7953s.
Experiment [10] concerns Salmonella enterica subsp. enterica serovar Typhimurium ATCC 14028s.
For experiment [11], the system named is Pseudomonas aeruginosa Z61.
In experiment [12] the test system is Staphylococcus epidermidis C621.
For experiment [13], the system named is Klebsiella pneumoniae ATCC 10031.
Experiment [14] relates to Escherichia coli ATCC 12795.
Experiment [15] relates to Mannheimia haemolytica 82-25.
Experiment [16] concerns Serratia marcescens ATCC 14756.
The subject of experiment [17] is Pseudomonas aeruginosa ATCC 27312.
Experiment [18] concerns Staphylococcus aureus ATCC 29213.
The test system of experiment [19] is Listeria monocytogenes 10403s.
Experiment [20] has as its system Staphylococcus epidermidis ATCC 12228.
Experiment [21] has as its system Bacillus cereus ATCC 11778.
Experiment [22] relates to Salmonella enterica subsp. enterica serovar Typhimurium ATCC 13311.
For experiment [23], the system named is Pseudomonas aeruginosa ATCC 27853.
The test system of experiment [24] is Shigella sonnei ATCC 11060.
For experiment [25], the system named is Staphylococcus aureus ATCC 25923.
Experiment [26] relates to Enterococcus faecium ATCC 35667.
Experiment [27] concerns Acinetobacter baumannii ATCC 19606.
Experiment [28] has as its system Bacillus subtilis ATCC 6051.
In experiment [29] the test system is Streptococcus pneumoniae ATCC 700677.
Experiment [30] relates to Klebsiella pneumoniae ATCC 700603.
The subject of experiment [31] is Cryptococcus neoformans ATCC 208821.
In experiment [32] the test system is Candida tropicalis ATCC 750.
Experiment [33] has as its system Staphylococcus aureus VRSA1.
Experiment [34] deals with Candida albicans ATCC 90028.
Experiment [35] relates to Staphylococcus aureus ATCC 43300.
In experiment [36] the test system is Bacillus megaterium ATCC 13632.

A word on the MIC: it is the lowest concentration that inhibits growth of the organism. Read a low MIC as inhibition by little substance. As to `CC[C@H](C)[C@H](NC(=O)[C@@H]1CCCN1)C(=O)N[C@@H](CCSC)C(=O)N[C@@H](Cc1ccc(O)cc1)C(=O)N[C@@H](CCCCN)C(=O)N[C@H](C(=O)N1CCC[C@H]1C(=O)N[C@@H](CC(C)C)C(=O)N[C@H](C(=O)N[C@@H](CCCN=C(N)N)C(=O)N[C@@H](CCCCN)C(=O)N[C@@H](CCCCN)C(=O)N[C@@H](CO)C(=O)N[C@@H](CC(C)C)C(=O)N[C@@H](CCCN=C(N)N)C(=O)N[C@@H](CCCN=C(N)N)C(=O)N[C@H](C(=O)N[C@@H](CC(C)C)C(=O)N[C@@H](CO)C(=O)N[C@@H](CCC(=O)O)C(=O)N[C@@H](CCCN=C(N)N)C(=O)NCC(=O)N[C@@H](CC(C)C)C(=O)N[C@@H](CC(C)C)C(=O)N[C@@H](CCCCN)C(=O)N[C@@H](CC(=O)O)C(=O)O)[C@@H](C)O)[C@@H](C)CC)C(C)C` [PIMYKVPLIRKKSLRRTLSERGLLKD], the MIC in [1] was 50 µM (≈ 156 µg/mL); in experiment [2] it was not below 50 µM; in [3], 25 µM (≈ 77.8 µg/mL); in [4] it was 25 µM (≈ 77.8 µg/mL); with Listeria monocytogenes, not below 50 µM; in [5] it was 25 µM (≈ 77.8 µg/mL). For the same compound, the MIC in experiment [6] was 12.5 µM (≈ 38.9 µg/mL); in [7], more than 12.5 µM.
Consider `CC[C@H](C)[C@H](NC(=O)[C@@H](N)CO)C(=O)NCC(=O)N[C@@H](CO)C(=O)N[C@@H](C)C(=O)N[C@@H](Cc1ccccc1)C(=O)N[C@@H](CCCCN)C(=O)N[C@@H](CCCCN)C(=O)N[C@@H](C)C(=O)N[C@@H](C)C(=O)N[C@@H](Cc1cnc[nH]1)C(=O)N[C@H](C(=O)NCC(=O)N[C@@H](CCCCN)C(=O)N[C@@H](Cc1cnc[nH]1)C(=O)N[C@H](C(=O)NCC(=O)N[C@@H](CCCCN)C(=O)N[C@@H](C)C(=O)N[C@@H](C)C(=O)N[C@@H](CC(C)C)C(=O)N[C@H](C(=O)N[C@@H](Cc1cnc[nH]1)C(=O)N[C@@H](Cc1ccc(O)cc1)C(=O)N[C@@H](CC(C)C)C(=O)N[C@@H](CC(N)=O)C(=O)O)[C@@H](C)O)C(C)C)C(C)C` [SIGSAFKKAAHVGKHVGKAALTHYLN], for which the MIC in experiment [8] worked out at 23.7 µM (≈ 64 µg/mL); in [9] it was 0.739 µM (≈ 2 µg/mL); against Vibrio anguillarum, 23.7 µM (≈ 64 µg/mL); against Aeromonas salmonicida, 2.96 µM (≈ 8 µg/mL); in [10], 23.7 µM (≈ 64 µg/mL); in experiment [11], 23.7 µM (≈ 64 µg/mL). In experiment [12], the MIC was found to be 23.7 µM (≈ 64 µg/mL).
For `C[C@H](N)C(=O)N[C@@H](CC(=O)O)C(=O)N[C@@H](C)C(=O)N[C@@H](CC(=O)O)C(=O)N[C@@H](CC(=O)O)C(=O)N[C@@H](CC(=O)O)C(=O)N[C@@H](CC(=O)O)C(=O)N[C@@H](CC(=O)O)C(=O)N[C@@H](CCCCN)C(=O)O` [ADADDDDDK], the MIC is 1800 µM (≈ 1760 µg/mL) in experiment [1]; not below 5.11 mM against Candida krusei ATCC 6258; not below 900 µM in experiment [13]; not below 850 µM in [14]; not below 230 µM in experiment [15]; not below 1500 µM in experiment [16]. The MIC was not below 1500 µM in experiment [17] and 1800 µM (≈ 1760 µg/mL) in experiment [18].
In the experiment on Escherichia coli TOP 10, `CC[C@H](C)[C@H](NC(=O)[C@H](CCCCN)NC(=O)[C@H](CO)NC(=O)[C@@H](NC(=O)[C@@H](NC(=O)[C@H](CC(N)=O)NC(=O)[C@H](CCCCN)NC(=O)[C@H](Cc1ccccc1)NC(=O)[C@H](C)NC(=O)[C@@H]1CCCN1C(=O)[C@H](CC(C)C)NC(=O)[C@@H](N)Cc1ccccc1)C(C)C)[C@@H](C)CC)C(=O)N[C@@H](CC(C)C)C(=O)N[C@@H](CCCCN)C(=O)N[C@@H](C)C(=O)N[C@@H](CC(C)C)C(=O)N[C@@H](CCCCN)C(=O)N[C@@H](CCCCN)C(=O)N[C@@H](CCCCN)C(=O)N[C@H](C(N)=O)C(C)C` [FLPAFKNVISKILKALKKKV] showed an MIC of 5.47 µM (≈ 12.5 µg/mL).
Regarding `CC[C@H](C)[C@H](NC(=O)[C@H](CCCN=C(N)N)NC(=O)[C@H](CCCCN)NC(=O)[C@H](C)NC(=O)[C@@H](NC(=O)[C@@H](N)CCCCN)[C@@H](C)CC)C(=O)N[C@@H](Cc1c[nH]c2ccccc12)C(=O)N[C@@H](CCCCN)C(=O)N[C@H](C(=O)N[C@@H](CC(C)C)C(=O)N[C@@H](CCCN=C(N)N)C(=O)N[C@@H](CCCN=C(N)N)C(=O)N[C@@H](CCCN=C(N)N)C(=O)N[C@@H](CC(C)C)C(=O)N[C@@H](Cc1ccccc1)C(N)=O)[C@@H](C)CC` [KIAKRIWKILRRRLF], the MIC was 0.976 µM (≈ 1.95 µg/mL) in experiment [19]; 1.96 µM (≈ 3.91 µg/mL) in experiment [20]; 15.6 µM (≈ 31.2 µg/mL) in experiment [1]; 7.82 µM (≈ 15.6 µg/mL) in [4]; 1.96 µM (≈ 3.91 µg/mL) in experiment [21]; 7.82 µM (≈ 15.6 µg/mL) against Escherichia coli O157:H7. Moreover, the MIC was determined as 1.96 µM (≈ 3.91 µg/mL) against Vibrio cholerae O1 Inaba; 1.96 µM (≈ 3.91 µg/mL) with Acinetobacter baumannii; 0.976 µM (≈ 1.95 µg/mL) in experiment [22]; 3.91 µM (≈ 7.81 µg/mL) in experiment [23]; 1.96 µM (≈ 3.91 µg/mL) in experiment [24]; 3.91 µM (≈ 7.81 µg/mL) in experiment [25].
Turning to `CC[C@H](C)[C@H](N)C(=O)N[C@@H](Cc1ccccc1)C(=O)N[C@@H](Cc1c[nH]c2ccccc12)C(=O)N[C@@H](CC(C)C)C(=O)N[C@@H](Cc1ccccc1)C(=O)N[C@@H](CCCN=C(N)N)C(=O)NCC(=O)N[C@@H](CCCCN)C(=O)N[C@@H](C)C(=O)N[C@@H](CC(=O)O)C(=O)N[C@H](C(=O)N[C@@H](C)C(=O)N[C@@H](CC(C)C)C(N)=O)C(C)C` [IFWLFRGKADVAL], the MIC is not below 41.7 µM in experiment [26]; more than 167 µM in [27]; not below 41.7 µM in [28]; more than 167 µM in experiment [4]; not below 83.3 µM in [29]; more than 167 µM in experiment [30]. Besides, the MIC in experiment [31] is 14.7 µM (≈ 22.6 µg/mL); in experiment [32], not below 83.3 µM; in experiment [23] it was more than 167 µM; in experiment [33] it was not below 83.3 µM; in experiment [18], more than 83.3 µM; in experiment [34] it was not below 83.3 µM. For the same compound, the MIC in [35] is more than 83.3 µM; in experiment [36] it was 29.5 µM (≈ 45.2 µg/mL).
